# Test results taken from patent US10918645B2 (LIFEARC, priority 2016, dated 2021).
# Assays:
# Format in all cases: biochemical
# Conditions in all cases: 1 μM inhibitor concentration
# [1] = biological target: ROCK2 (Homo sapiens (Human), UniProt O75116); assay: ROCK2 kinase selectivity assay
# Method: (§1) ROCK-II (ROKa) (5-20 mU diluted in 50 mM Tris pH 7.5, 0.1 mM EGTA, 0.1% b-mercaptoethanol, 1 mg/ml BSA) is assayed against Long S6 substrate peptide ([…]) in a final volume of 25.5 μl containing 50 mM Tris pH 7.5, 0.1 mM EGTA, 30 μM Long S6 substrate peptide, 10 mM magnesium acetate and 0.02 mM [33P-g-ATP] (50-1000 cpm/pmole) and incubated for 30 min at room temperature. Assays are stopped by addition of 5 μl of 0.5 M (3%) orthophosphoric acid and then harvested onto P81 Unifilter plates with a wash buffer of 50 mM orthophosphoric acid.
# [2] = biological target: MST2 (Homo sapiens (Human), UniProt Q13188); assay: MST2 kinase selectivity assay
# Sequence of MST2 (Q13188 whole entry, species assumed): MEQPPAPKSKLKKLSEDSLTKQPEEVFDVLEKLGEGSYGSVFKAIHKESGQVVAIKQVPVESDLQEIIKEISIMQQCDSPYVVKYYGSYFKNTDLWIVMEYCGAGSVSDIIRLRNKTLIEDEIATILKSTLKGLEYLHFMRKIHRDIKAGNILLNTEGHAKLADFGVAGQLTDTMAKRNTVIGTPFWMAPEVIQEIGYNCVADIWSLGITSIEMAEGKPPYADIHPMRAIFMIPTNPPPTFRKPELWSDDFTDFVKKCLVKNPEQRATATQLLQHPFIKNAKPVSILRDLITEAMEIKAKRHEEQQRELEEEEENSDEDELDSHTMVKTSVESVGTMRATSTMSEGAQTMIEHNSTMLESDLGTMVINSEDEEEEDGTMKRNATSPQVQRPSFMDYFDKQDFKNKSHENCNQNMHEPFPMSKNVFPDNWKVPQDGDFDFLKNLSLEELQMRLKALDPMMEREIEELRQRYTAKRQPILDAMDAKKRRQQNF
# Method: MST2 (5-20 mU diluted in 50 mM Tris pH 7.5, 0.1 mM EGTA, 0.1% b-mercaptoethanol, 100 µM Vanadate) is assayed against MBP in a final volume of 25.5 μl containing 50 mM Tris pH 7.5, 0.05% b-mercaptoethanol, 0.33 mg/ml MBP, 10 mM magnesium acetate and 0.02 mM [33P-g-ATP] (50-1000 cpm/pmole) and incubated for 30 min at room temperature. Assays are stopped by addition of 5 μl of 0.5 M (3%) orthophosphoric acid and then harvested onto P81 Unifilter plates with a wash buffer of 50 mM orthophosphoric acid.
# [3] = biological target: BRSK2 (Homo sapiens (Human), UniProt Q8IWQ3); assay: BRSK2 kinase selectivity assay
# Sequence of BRSK2 (Q8IWQ3 whole entry, species assumed): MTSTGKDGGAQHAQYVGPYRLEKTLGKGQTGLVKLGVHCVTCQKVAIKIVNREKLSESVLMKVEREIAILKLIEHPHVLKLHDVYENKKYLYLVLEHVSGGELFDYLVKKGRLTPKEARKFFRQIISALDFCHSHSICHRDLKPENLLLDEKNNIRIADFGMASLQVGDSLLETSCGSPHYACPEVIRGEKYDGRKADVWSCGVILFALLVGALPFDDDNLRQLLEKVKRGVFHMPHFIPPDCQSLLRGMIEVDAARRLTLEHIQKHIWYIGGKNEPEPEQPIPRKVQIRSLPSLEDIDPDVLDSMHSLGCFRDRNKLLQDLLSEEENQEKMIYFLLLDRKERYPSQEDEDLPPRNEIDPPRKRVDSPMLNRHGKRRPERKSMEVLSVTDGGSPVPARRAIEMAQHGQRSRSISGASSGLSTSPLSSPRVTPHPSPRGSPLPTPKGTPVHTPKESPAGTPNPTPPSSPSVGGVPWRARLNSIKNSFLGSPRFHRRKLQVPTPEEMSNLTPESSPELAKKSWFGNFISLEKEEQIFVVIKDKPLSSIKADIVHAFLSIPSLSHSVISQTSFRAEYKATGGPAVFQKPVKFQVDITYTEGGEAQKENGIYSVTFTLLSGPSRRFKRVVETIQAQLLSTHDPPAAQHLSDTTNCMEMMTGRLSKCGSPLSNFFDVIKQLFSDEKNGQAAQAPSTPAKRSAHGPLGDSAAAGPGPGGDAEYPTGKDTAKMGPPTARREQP
# Method: as §1, with “BRSK2” for “ROCK-II (ROKa)”, “a” for “Long S6”, “0.05% b-mercaptoethanol, 300” for “0.1 mM EGTA, 30”, “μM” for “μM Long S6”, “0.05” for “0.02”
# [4] = biological target: EPH-B3 (Homo sapiens (Human), UniProt P54753); assay: EPH-B3 kinase selectivity assay
# Sequence of EPH-B3 (P54753 34-998, species assumed): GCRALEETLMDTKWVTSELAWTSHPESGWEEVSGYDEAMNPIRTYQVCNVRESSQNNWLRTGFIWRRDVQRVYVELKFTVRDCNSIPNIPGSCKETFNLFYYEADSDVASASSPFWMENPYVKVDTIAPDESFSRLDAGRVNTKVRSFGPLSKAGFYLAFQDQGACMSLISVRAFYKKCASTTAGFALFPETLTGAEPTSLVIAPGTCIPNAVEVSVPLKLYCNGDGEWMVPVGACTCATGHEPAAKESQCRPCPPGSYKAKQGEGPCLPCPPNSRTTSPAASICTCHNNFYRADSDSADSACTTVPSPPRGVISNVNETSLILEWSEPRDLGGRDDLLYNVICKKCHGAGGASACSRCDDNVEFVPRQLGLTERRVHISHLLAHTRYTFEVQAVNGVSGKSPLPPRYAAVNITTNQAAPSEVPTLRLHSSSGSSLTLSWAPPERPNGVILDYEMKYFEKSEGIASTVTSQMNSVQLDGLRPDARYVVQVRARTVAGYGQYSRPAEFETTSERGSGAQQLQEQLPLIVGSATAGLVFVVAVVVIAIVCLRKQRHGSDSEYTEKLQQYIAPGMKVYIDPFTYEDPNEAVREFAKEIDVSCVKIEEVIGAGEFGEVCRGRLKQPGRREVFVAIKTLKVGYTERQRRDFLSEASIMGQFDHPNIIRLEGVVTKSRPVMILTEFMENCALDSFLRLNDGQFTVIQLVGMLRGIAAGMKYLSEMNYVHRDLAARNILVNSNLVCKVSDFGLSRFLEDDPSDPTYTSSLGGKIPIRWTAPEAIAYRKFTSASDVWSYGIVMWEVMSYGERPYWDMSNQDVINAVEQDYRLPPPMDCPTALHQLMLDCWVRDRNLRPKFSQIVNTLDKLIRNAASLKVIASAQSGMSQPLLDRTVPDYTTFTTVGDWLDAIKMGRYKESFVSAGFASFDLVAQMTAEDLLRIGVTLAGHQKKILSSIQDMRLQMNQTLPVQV
# Method: EPH-B3 (5-20 mU diluted in 50 mM Tris pH 7.5, 0.1 mM EGTA, 1 mg/ml BSA) is assayed against a substrate peptide (Poly Glut Tyr) in a final volume of 25.5 μl containing 50 mM Tris pH 7.5, 1 mg/ml substrate peptide, 10 mM magnesium acetate and 0.005 mM [33P-g-ATP] (50-1000 cpm/pmole) and incubated for 30 min at room temperature. Assays are stopped by addition of 5 μl of 0.5 M (3%) orthophosphoric acid and then harvested onto P81 Unifilter plates with a wash buffer of 50 mM orthophosphoric acid.
# [5] = biological target: IKKe (Homo sapiens (Human), UniProt Q14164); assay: IKKe kinase selectivity assay
# Sequence of IKKe (Q14164 whole entry, species assumed): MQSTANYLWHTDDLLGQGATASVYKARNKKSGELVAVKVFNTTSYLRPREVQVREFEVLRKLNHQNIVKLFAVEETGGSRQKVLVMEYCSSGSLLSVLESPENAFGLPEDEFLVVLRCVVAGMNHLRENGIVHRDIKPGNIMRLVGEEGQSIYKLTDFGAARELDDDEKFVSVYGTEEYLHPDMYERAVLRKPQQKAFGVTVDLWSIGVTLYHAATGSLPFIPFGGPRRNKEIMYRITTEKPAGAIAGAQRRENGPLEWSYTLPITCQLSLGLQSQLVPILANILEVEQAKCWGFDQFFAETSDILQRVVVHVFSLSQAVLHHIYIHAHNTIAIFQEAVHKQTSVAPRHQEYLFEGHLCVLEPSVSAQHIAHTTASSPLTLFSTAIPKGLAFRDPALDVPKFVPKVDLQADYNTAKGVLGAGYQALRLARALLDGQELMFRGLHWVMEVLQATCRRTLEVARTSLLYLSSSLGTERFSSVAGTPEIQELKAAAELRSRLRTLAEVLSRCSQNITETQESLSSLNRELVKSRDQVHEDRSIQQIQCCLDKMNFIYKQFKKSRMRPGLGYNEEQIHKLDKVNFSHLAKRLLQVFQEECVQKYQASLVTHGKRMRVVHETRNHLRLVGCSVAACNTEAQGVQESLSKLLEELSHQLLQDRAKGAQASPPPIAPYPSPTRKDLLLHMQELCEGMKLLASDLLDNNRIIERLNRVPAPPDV
# Method: (§2) 5-20 mU of IKKepsilon (DU14231)(diluted in 50 mM Tris (pH 7.5), 0.1 mM EGTA, 1 mg/ml BSA) is assayed against MBP in a final volume of 25.5 μl containing 50 mM Tris (pH 7.5), 0.1 mM EGTA, 0.33 mg/ml MBP, 10 mM magnesium acetate and 0.05 mM [33P-g-ATP](500-1000 cpm/pmole) and incubated for 30 mins at room temperature. Assays are stopped by addition of 5 μl of 0.5M (3%) orthophosphoric acid. Assays are harvested onto P81 Unifilter plates using a wash buffer of 50 mM orthophosphoric acid.
# [6] = biological target: PRAK (Homo sapiens (Human), UniProt Q8IW41); assay: PRAK kinase selectivity assay
# Method: PRAK (5-20 mU diluted in 50 mM Na-b-glycerophosphate pH 7.5, 0.1 mM EGTA, 0.1% b-mercaptoethanol, 1 mg/ml BSA) is assayed against […] in a final volume of 25.5 μl containing 50 mM Na-b-glycerophosphate pH 7.5, 0.1 mM EGTA, 30 μM substrate peptide, 10 mM magnesium acetate and 0.02 mM [33P-g-ATP] (50-1000 cpm/pmole) and incubated for 30 min at room temperature. Assays are stopped by addition of 5 μl of 0.5 M (3%) orthophosphoric acid and then harvested onto P81 Unifilter plates with a wash buffer of 50 mM orthophosphoric acid.
# [7] = biological target: IRR (Homo sapiens (Human), UniProt P14616); assay: IRR kinase selectivity assay
# Sequence of IRR (P14616 27-1297, species assumed): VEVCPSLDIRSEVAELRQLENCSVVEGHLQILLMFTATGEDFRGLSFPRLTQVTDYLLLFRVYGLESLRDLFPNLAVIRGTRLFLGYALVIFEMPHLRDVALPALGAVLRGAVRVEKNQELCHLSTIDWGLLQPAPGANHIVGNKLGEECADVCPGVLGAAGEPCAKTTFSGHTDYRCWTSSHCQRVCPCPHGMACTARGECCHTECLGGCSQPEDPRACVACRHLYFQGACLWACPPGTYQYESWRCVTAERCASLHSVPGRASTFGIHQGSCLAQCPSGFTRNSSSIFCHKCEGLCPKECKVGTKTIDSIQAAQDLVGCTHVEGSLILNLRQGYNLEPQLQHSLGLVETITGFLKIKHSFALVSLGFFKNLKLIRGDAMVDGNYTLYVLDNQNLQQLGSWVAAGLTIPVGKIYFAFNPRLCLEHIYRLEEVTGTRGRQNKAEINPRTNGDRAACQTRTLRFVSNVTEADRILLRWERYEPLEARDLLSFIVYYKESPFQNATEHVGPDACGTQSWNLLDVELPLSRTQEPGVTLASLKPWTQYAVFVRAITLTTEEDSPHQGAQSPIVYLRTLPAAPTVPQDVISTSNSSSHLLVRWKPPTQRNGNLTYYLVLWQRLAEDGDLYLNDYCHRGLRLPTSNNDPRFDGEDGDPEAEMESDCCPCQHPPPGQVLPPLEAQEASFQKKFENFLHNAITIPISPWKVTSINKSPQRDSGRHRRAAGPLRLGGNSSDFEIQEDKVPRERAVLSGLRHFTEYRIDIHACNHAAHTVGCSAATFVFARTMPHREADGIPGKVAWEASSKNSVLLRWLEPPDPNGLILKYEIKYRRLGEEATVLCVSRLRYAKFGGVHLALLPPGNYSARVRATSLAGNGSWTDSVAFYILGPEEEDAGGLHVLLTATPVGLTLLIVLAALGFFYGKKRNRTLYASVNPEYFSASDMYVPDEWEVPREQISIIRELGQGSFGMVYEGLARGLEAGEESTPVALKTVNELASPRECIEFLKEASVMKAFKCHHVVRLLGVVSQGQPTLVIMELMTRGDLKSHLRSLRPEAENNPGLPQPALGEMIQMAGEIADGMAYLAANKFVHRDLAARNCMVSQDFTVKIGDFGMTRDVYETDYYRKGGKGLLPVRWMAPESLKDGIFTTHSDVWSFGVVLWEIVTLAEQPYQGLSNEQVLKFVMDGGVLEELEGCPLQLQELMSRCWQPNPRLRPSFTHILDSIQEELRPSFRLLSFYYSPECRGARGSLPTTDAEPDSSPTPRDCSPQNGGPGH
# Method: as §2, with “IRR (diluted” for “IKKepsilon (DU14231)(diluted”, “Hepes” for “Tris”, “EGTA)” for “EGTA, 1 mg/ml BSA)”, “0.005” for “0.05”
# [8] = biological target: RSK1 (Homo sapiens (Human), UniProt Q15418); assay: RSK1 kinase selectivity assay
# Sequence of RSK1 (Q15418 whole entry, species assumed): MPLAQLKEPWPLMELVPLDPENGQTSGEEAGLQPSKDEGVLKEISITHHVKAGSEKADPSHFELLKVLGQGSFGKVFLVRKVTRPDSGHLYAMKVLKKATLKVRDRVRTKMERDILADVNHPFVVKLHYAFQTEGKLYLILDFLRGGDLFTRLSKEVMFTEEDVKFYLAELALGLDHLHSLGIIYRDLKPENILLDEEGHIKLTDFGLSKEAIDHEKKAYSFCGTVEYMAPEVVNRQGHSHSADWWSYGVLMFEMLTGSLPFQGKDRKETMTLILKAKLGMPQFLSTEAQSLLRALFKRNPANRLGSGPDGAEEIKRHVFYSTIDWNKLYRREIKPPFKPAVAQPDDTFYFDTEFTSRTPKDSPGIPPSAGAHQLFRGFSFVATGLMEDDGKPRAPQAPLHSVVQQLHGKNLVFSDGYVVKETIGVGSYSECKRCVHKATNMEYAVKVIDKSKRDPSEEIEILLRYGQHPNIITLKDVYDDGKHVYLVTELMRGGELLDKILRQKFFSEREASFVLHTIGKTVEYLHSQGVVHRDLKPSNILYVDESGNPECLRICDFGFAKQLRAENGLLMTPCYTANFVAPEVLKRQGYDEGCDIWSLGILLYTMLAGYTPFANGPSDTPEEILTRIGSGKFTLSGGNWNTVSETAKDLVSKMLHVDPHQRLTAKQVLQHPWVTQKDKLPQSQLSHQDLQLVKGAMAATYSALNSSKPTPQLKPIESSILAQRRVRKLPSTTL
# Method: MAPKAP-K1a (5-20 mU diluted in 20 mM MOPS pH 7.5, 1 mM EDTA, 0.01% Brij35, 5% glycerol, 0.1% b-mercaptoethanol, 1 mg/ml BSA) is assayed against […] in a final volume of 25.5 μl containing 50 mM Na-b-glycerophosphate pH 7.5, 0.5 mM EDTA, 30 μM substrate peptide, 10 mM magnesium acetate and 0.05 mM [33P-g-ATP] (50-1000 cpm/pmole) and incubated for 40 min at room temperature. Assays are stopped by addition of 5 μl of 0.5 M (3%) orthophosphoric acid and then harvested onto P81 Unifilter plates with a wash buffer of 50 mM orthophosphoric acid.
# [9] = biological target: IR (Homo sapiens (Human), UniProt P06213); assay: IR kinase selectivity assay
# Method: as §1, with “IR-HIS” for “ROCK-II (ROKa)”, “EGTA,” for “EGTA, 0.1% b-mercaptoethanol,”, “a” for “Long S6”, “300 µM” for “0.1 mM EGTA, 30 μM Long S6”
SMILES,percentage inhibition of ROCK2 [1] [percentage],percentage inhibition of MST2 [2] [percentage],percentage inhibition of BRSK2 [3] [percentage],percentage inhibition of EPH-B3 [4] [percentage],percentage inhibition of IKKe [5] [percentage],percentage inhibition of PRAK [6] [percentage],percentage inhibition of IRR [7] [percentage],percentage inhibition of RSK1 [8] [percentage],percentage inhibition of IR [9] [percentage]
"c1cc2[nH]nc3c2c(n1)N(C1CCOCC1)CCC3 [Example 29, 6-(tetrahydro-2H-pyran-4-yl)-6,7,8,9-tetrahydro-2H-1,2,5,6-tetraazabenzo[cd]azulene]",11,10,2,0,9,0,6,10,2
CN1CCC(N2Cc3ccccc3-c3n[nH]c4ccnc2c34)CC1 [Example 55],14,28,50,12,5,18,18,41,5
"c1cc2[nH]nc3c2c(n1)N(C1CCCC1)CCC3 [Example 23, 6-cyclopentyl-6,7,8,9-tetrahydro-2H-1,2,5,6-tetraazabenzo[cd]azulene]",0,0,0,0,0,0,4,0,1
CC(C)n1ncc2c1CN(C1CCN(C)CC1)c1nccc3[nH]nc-2c13 [Example 68],21,2,31,5,0,13,1,69,0
"c1cc2[nH]nc3c2c(n1)N(C1CCC1)CCC3 [Example 22, 6-cyclobutyl-6,7,8,9-tetrahydro-2H-1,2,5,6-tetraazabenzo[cd]azulene]",5,20,0,0,0,0,8,0,27
